From ChEMBL document CHEMBL1201862, “PubChem BioAssay data set” (2004)
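Dose response: 5 concentrations. Exposure: 48 h. Format: 96-well plates. Endpoint: linear interpolation; highest concentration if not reached. GI50 = concentration required for 50% inhibition of growth.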 The source made the active and inactive calls. Rule as the data show it: active = GI50 up to about 1.1 µM and inactive = higher.

Assays:
Assay in all cases: inhibition of tumour cell growth, NCI panel, 48 h
OVCAR-8 = tested on: OVCAR-8
HCT-116 = tested on: HCT-116
DMS-114 = tested on: DMS-114
SNB-75 = tested on: SNB-75
CCRF-CEM = tested on: CCRF-CEM
SW-620 = tested on: SW-620
NCI-H226 = tested on: NCI-H226
KM-20L2 = tested on: KM-20L2
A549 = tested on: A549
Malme-3M = tested on: Malme-3M
SK-MEL-28 = tested on: SK-MEL-28
MCF7 = tested on: MCF7
UACC-257 = tested on: UACC-257
MOLT-4 = tested on: MOLT-4
SK-MEL-5 = tested on: SK-MEL-5
NCI-H522 = tested on: NCI-H522
SNB-19 = tested on: SNB-19
SF-268 = tested on: SF-268
EKVX = tested on: EKVX
RXF 393 = tested on: RXF 393
OVCAR-5 = tested on: OVCAR-5
SF-295 = tested on: SF-295
SN12C = tested on: SN12C
COLO 205 = tested on: COLO 205
SF-539 = tested on: SF-539
HOP-18 = tested on: HOP-18
OVCAR-4 = tested on: OVCAR-4
DMS-273 = tested on: DMS-273
RPMI-8226 = tested on: RPMI-8226
HL-60 = tested on: HL-60
UACC-62 = tested on: UACC-62
HCC 2998 = tested on: HCC 2998
KM12 = tested on: KM12
U-251 = tested on: U-251
LOX IMVI = tested on: LOX IMVI
K562 = tested on: K562
A498 = tested on: A498
HOP-62 = tested on: HOP-62
NCI/ADR-RES = tested on: NCI/ADR-RES
HT-29 = tested on: HT-29
SNB-78 = tested on: SNB-78
SK-OV-3 = tested on: SK-OV-3
UO-31 = tested on: UO-31
NCI-H460 = tested on: NCI-H460
NCI-H23 = tested on: NCI-H23
HOP-92 = tested on: HOP-92
DLD-1 = tested on: DLD-1
XF498 = tested on: XF498
OVCAR-3 = tested on: OVCAR-3
IGROV-1 = tested on: IGROV-1
SK-MEL-2 = tested on: SK-MEL-2
CAKI-1 = tested on: CAKI-1
M19-MEL = tested on: M19-MEL
HCT-15 = tested on: HCT-15
LXFL 529 = tested on: LXFL 529
786-0 = tested on: 786-0
TK-10 = tested on: TK-10
ACHN = tested on: ACHN
M14 = tested on: M14
SR = tested on: SR
DU-145 = tested on: DU-145

Measured: GI50

Cc1nc(O)nc(O)c1/C=C/C(=O)O
> 1000 µM: HCT-15
inactive: OVCAR-8 > 1000 µM | HCT-116 > 1000 µM | DMS-114 > 1000 µM | SNB-75 > 1000 µM | CCRF-CEM > 1000 µM | SW-620 > 1000 µM | NCI-H226 > 1000 µM | KM-20L2 > 1000 µM | A549 > 1000 µM | Malme-3M > 1000 µM | SK-MEL-28 > 1000 µM | MCF7 > 1000 µM | UACC-257 > 1000 µM | MOLT-4 > 1000 µM | SK-MEL-5 > 1000 µM | NCI-H522 > 1000 µM | SNB-19 > 1000 µM | SF-268 > 1000 µM | EKVX > 1000 µM | RXF 393 > 1000 µM | OVCAR-5 > 891 µM | SF-295 > 1000 µM | SN12C > 1000 µM | COLO 205 > 1000 µM | SF-539 > 1000 µM | HOP-18 > 1000 µM | OVCAR-4 > 1000 µM | DMS-273 > 1000 µM | RPMI-8226 > 1000 µM | HL-60 > 1000 µM | UACC-62 > 1000 µM | HCC 2998 > 1000 µM | KM12 > 1000 µM | U-251 > 1000 µM | LOX IMVI > 1000 µM | K562 > 1000 µM | A498 > 1000 µM | HOP-62 > 1000 µM | NCI/ADR-RES > 1000 µM | HT-29 > 1000 µM | SNB-78 > 1000 µM | SK-OV-3 > 1000 µM | UO-31 > 1000 µM | NCI-H460 > 1000 µM | NCI-H23 > 1000 µM | HOP-92 56.6 µM | DLD-1 > 1000 µM | XF498 > 1000 µM | OVCAR-3 > 1000 µM | IGROV-1 > 1000 µM | SK-MEL-2 > 1000 µM | CAKI-1 > 1000 µM | M19-MEL > 1000 µM

CC1(C)C(c2ccccc2)C12CCC1(C2=O)C(c2ccccc2)C1(C)C (stereo not given)
inactive: OVCAR-8 34.1 µM | HCT-116 16.6 µM | DMS-114 17.9 µM | SNB-75 30.4 µM | CCRF-CEM 18.9 µM | SW-620 21.7 µM | NCI-H226 17.9 µM | KM-20L2 20.3 µM | A549 26.4 µM | LXFL 529 31.5 µM | Malme-3M 26.7 µM | SK-MEL-28 27.2 µM | 786-0 25.2 µM | UACC-257 17.9 µM | MOLT-4 18.9 µM | SK-MEL-5 18.7 µM | NCI-H522 13.5 µM | SNB-19 28.8 µM | SF-268 29.4 µM | EKVX 25.1 µM | RXF 393 20.1 µM | OVCAR-5 24.7 µM | SF-295 19.4 µM | SN12C 27.1 µM | COLO 205 18.8 µM | SF-539 26.8 µM | OVCAR-4 31.3 µM | DMS-273 22.1 µM | RPMI-8226 14.3 µM | HL-60 20.1 µM | UACC-62 32 µM | TK-10 34.5 µM | HCC 2998 18.4 µM | KM12 > 10 µM | U-251 17.8 µM | LOX IMVI 20.2 µM | K562 20 µM | A498 34.6 µM | HOP-62 26.1 µM | HT-29 16.1 µM | SNB-78 24.6 µM | UO-31 19.9 µM | ACHN 19.6 µM | NCI-H23 18.9 µM | HOP-92 11.7 µM | XF498 18.7 µM | OVCAR-3 19.9 µM | IGROV-1 31.8 µM | SK-MEL-2 19.7 µM | CAKI-1 23.1 µM | M19-MEL 24.6 µM | M14 23.3 µM
24.2 µM: HCT-15

C=CCOCCCCC(C(C)=O)C(=O)OC (stereo not given)
inactive: OVCAR-8 > 100 µM | HCT-116 > 100 µM | SNB-75 > 100 µM | CCRF-CEM > 100 µM | SW-620 > 100 µM | NCI-H226 > 100 µM | KM-20L2 > 100 µM | A549 > 100 µM | LXFL 529 > 100 µM | Malme-3M > 100 µM | SK-MEL-28 > 100 µM | 786-0 > 100 µM | UACC-257 > 100 µM | MOLT-4 > 100 µM | SK-MEL-5 > 100 µM | NCI-H522 > 100 µM | SNB-19 > 100 µM | SF-268 > 100 µM | RXF 393 > 100 µM | OVCAR-5 > 100 µM | SF-295 > 100 µM | SR > 100 µM | SN12C > 100 µM | DU-145 > 100 µM | COLO 205 > 100 µM | SF-539 > 100 µM | HOP-18 > 100 µM | OVCAR-4 > 100 µM | RPMI-8226 > 100 µM | HL-60 > 100 µM | UACC-62 > 100 µM | TK-10 > 100 µM | HCC 2998 > 100 µM | KM12 > 100 µM | U-251 > 100 µM | LOX IMVI > 100 µM | K562 > 100 µM | A498 > 100 µM | HT-29 > 100 µM | SNB-78 > 100 µM | SK-OV-3 > 100 µM | UO-31 > 100 µM | ACHN > 100 µM | NCI-H460 > 100 µM | NCI-H23 > 100 µM | HOP-92 54.8 µM | DLD-1 > 100 µM | XF498 > 100 µM | OVCAR-3 > 100 µM | IGROV-1 > 100 µM | SK-MEL-2 > 100 µM | CAKI-1 > 100 µM | M19-MEL > 100 µM | M14 > 100 µM
> 100 µM: HCT-15

CCC/C=C\C=C\C1(NS(=O)(=O)c2ccc(C)cc2)CCC(C(C)(C)C)CC1 (stereo not given)
inactive: OVCAR-8 > 10 µM | HCT-116 15.4 µM | SNB-75 23.4 µM | CCRF-CEM 9.1 µM | SW-620 17.9 µM | NCI-H226 20.5 µM | KM-20L2 16.9 µM | A549 15.4 µM | LXFL 529 25.2 µM | Malme-3M 14.9 µM | 786-0 10.2 µM | UACC-257 16.8 µM | MOLT-4 7.1 µM | SK-MEL-5 16.7 µM | NCI-H522 3.2 µM | SNB-19 35.5 µM | SF-268 17.4 µM | EKVX 14.2 µM | RXF 393 13.7 µM | OVCAR-5 21.5 µM | SF-295 19.9 µM | SR 3.15 µM | SN12C 11.2 µM | COLO 205 14.5 µM | SF-539 35.7 µM | HOP-18 14.9 µM | OVCAR-4 17.1 µM | DMS-273 13.4 µM | RPMI-8226 7.96 µM | HL-60 6.93 µM | UACC-62 21.3 µM | TK-10 24.9 µM | HCC 2998 16.9 µM | KM12 16.5 µM | U-251 12.5 µM | K562 12.5 µM | A498 21.2 µM | HOP-62 20.7 µM | HT-29 15.5 µM | SNB-78 19.1 µM | SK-OV-3 26.7 µM | UO-31 23.7 µM | ACHN 18.2 µM | NCI-H460 14.6 µM | NCI-H23 14.1 µM | HOP-92 22.9 µM | DLD-1 19.4 µM | XF498 16.7 µM | OVCAR-3 7.01 µM | IGROV-1 27 µM | SK-MEL-2 13.5 µM | CAKI-1 19.6 µM | M19-MEL 17.1 µM | M14 13.3 µM
17.5 µM: HCT-15

CCCCCCCCCCCCCCCC(=O)OCCOCCOCCOCc1ccccc1
inactive: OVCAR-8 > 100 µM | HCT-116 > 100 µM | SNB-75 65.3 µM | SW-620 > 100 µM | NCI-H226 > 100 µM | A549 > 100 µM | Malme-3M > 100 µM | SK-MEL-28 > 100 µM | 786-0 > 100 µM | UACC-257 > 100 µM | SK-MEL-5 > 100 µM | SNB-19 63.8 µM | SF-268 91 µM | EKVX > 100 µM | RXF 393 > 100 µM | OVCAR-5 > 100 µM | SF-295 26 µM | SN12C > 100 µM | COLO 205 > 100 µM | SF-539 > 100 µM | HOP-18 50.8 µM | OVCAR-4 > 100 µM | DMS-273 > 100 µM | UACC-62 36.1 µM | TK-10 > 100 µM | KM12 > 100 µM | U-251 41.6 µM | LOX IMVI > 100 µM | A498 > 100 µM | HOP-62 > 100 µM | HT-29 > 100 µM | SNB-78 > 100 µM | ACHN > 100 µM | NCI-H460 > 100 µM | NCI-H23 > 100 µM | HOP-92 21.1 µM | DLD-1 > 100 µM | XF498 > 100 µM | OVCAR-3 > 100 µM | IGROV-1 > 100 µM | SK-MEL-2 > 100 µM | CAKI-1 80.7 µM | M19-MEL > 100 µM
